Structures are written as SMILES.

The target of experiment [1] is T1, erbB2 tyrosine kinase (Homo sapiens, UniProt P04626).
T1 construct: Recombinant intracellular fragments of EGFR, erbB2 and erbB4; made in house; host or cells: baculovirus/Sf21 insect cells (cleared lysate used)
The experiment in a line: Protein tyrosine kinase phosphorylation assay, Test (a), erbB2. Format: biochemical. The conditions noted are these: recombinant intracellular fragment, ATP at Km; read-out: IC50 Test (a): Inhibition of erbB2 tyrosine kinase protein phosphorylation. How it is done:
(§1) This test measures the ability of a test compound to inhibit the phosphorylation of a tyrosine containing polypeptide substrate by EGFR, erbB2 and erbB4 tyrosine kinase enzyme.
(§2) Recombinant intracellular fragments of EGFR, erbB2 and erbB4 (accession numbers X00588, X03363 and L07868 respectively) were cloned and expressed in the baculovirus/Sf21 system. […]
(§3) Constitutive kinase activity of these recombinant proteins was determined by their ability to phosphorylate a synthetic peptide (made up of a random co-polymer of Glutamic Acid, Alanine and Tyrosine in the ratio of 6:3:1). […]
(§4) The immobilised phospho-peptide product of the reaction was detected by immunological methods. […] After further washing, HRP activity in each well of the plate was measured colorimetrically using 22′-Azino-di-[3-ethylbenzthiazoline sulfonate (6)]diammonium salt crystals (ABTS™ from Roche) as a substrate.
(§5) Quantification of colour development and thus enzyme activity was achieved by the measurement of absorbance at 405 nm on a Molecular Devices ThermoMax microplate reader. Kinase inhibition for a given compound was expressed as an IC50 value. […] The range of phosphorylation was calculated from the positive (vehicle plus ATP) and negative (vehicle minus ATP) control values.

In experiment [2] the target is T2, EGFR tyrosine kinase (Homo sapiens, UniProt P00533).
T2 construct: Recombinant intracellular fragments of EGFR, erbB2 and erbB4; made in house; host or cells: baculovirus/Sf21 insect cells (cleared lysate used)
T2 sequence (P00533 669-1210 limits assumed): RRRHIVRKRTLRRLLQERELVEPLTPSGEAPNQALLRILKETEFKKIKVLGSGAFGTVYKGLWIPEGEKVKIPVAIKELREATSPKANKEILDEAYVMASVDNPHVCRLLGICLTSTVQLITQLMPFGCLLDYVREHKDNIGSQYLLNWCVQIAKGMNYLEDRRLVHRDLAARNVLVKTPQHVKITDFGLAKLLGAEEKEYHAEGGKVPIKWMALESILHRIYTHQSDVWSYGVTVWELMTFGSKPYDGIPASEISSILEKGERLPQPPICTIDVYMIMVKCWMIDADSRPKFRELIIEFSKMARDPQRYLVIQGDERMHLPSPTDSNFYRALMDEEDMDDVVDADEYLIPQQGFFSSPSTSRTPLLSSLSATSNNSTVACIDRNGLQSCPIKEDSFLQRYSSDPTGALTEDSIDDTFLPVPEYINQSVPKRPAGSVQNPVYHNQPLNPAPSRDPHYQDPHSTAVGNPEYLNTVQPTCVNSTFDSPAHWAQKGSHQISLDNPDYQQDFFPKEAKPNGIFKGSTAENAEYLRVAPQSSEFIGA
Description: Protein tyrosine kinase phosphorylation assay, Test (a), EGFR. Format: biochemical. The following applies: recombinant intracellular fragment, ATP at Km; read-out: IC50 Test (a): Inhibition of EGFR tyrosine kinase protein phosphorylation. How it is done:
as §1, §2, §3, §4, §5

Experiment [3] has as its target T3, erbB2 (Homo sapiens, UniProt P04626).
T3 construct: a cell line that overexpresses full length wild type erbB2 protein; expressed in transfected cells; host or cells: MCF7 (breast carcinoma) derived 'Clone 24' cells
The experiment in a line: Clone 24 phospho-erbB2 cell assay, Test (c). In kind it is cell-based. The conditions noted are these: MCF7 derived cell line (Clone 24) overexpressing erbB2, 4 hours; read-out: IC50 Test (c): Inhibition of erbB2 tyrosine kinase protein phosphorylation. How it is done:
This immunofluorescence end point assay measures the ability of a test compound to inhibit the phosphorylation of erbB2 in a MCF7 (breast carcinoma) derived cell line which was generated by transfecting MCF7 cells with the full length erbB2 gene using standard methods to give a cell line that overexpresses full length wild type erbB2 protein (hereinafter ‘Clone 24’ cells).
Clone 24 cells were cultured in Growth Medium (phenol red free Dulbecco's modified Eagle's medium (DMEM) containing 10% foetal bovine serum, 2 mM glutamine and 1.2 mg/ml G418) in a 7.5% CO2 air incubator at 37° C. […] Cell density was measured using a haemocytometer and viability was calculated using Trypan Blue solution before being further diluted in Growth Medium and seeded at a density of 1×10^4 cells per well (in 100 μl) into clear bottomed 96 well plates (Packard, No. 6005182). […]
Immunostaining was performed at room temperature. […] Plates were analysed within six hours of completing the immunostaining.
The Fluorescence signal is each well was measured using an Acumen Explorer Instrument (Acumen Bioscience Ltd.), a plate reader that can be used to rapidly quantitate features of images generated by laser-scanning. […]

T1 sequence (P04626 676-1255 limits assumed): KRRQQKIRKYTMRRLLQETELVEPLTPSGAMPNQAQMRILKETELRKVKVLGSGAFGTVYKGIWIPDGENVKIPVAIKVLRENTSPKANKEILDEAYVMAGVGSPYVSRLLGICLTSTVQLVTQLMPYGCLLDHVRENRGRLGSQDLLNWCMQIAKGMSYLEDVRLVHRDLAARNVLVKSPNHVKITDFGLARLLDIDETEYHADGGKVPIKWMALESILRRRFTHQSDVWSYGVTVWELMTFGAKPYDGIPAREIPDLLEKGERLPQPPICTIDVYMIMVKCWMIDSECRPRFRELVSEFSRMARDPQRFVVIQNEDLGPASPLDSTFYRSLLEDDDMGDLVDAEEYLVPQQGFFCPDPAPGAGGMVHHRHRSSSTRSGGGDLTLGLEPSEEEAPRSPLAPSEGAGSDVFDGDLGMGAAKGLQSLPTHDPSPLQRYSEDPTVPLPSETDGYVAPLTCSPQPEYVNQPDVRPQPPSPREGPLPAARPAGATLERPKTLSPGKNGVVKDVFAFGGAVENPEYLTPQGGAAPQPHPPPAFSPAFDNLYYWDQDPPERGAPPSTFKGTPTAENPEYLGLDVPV
T3 sequence (P04626 23-1255): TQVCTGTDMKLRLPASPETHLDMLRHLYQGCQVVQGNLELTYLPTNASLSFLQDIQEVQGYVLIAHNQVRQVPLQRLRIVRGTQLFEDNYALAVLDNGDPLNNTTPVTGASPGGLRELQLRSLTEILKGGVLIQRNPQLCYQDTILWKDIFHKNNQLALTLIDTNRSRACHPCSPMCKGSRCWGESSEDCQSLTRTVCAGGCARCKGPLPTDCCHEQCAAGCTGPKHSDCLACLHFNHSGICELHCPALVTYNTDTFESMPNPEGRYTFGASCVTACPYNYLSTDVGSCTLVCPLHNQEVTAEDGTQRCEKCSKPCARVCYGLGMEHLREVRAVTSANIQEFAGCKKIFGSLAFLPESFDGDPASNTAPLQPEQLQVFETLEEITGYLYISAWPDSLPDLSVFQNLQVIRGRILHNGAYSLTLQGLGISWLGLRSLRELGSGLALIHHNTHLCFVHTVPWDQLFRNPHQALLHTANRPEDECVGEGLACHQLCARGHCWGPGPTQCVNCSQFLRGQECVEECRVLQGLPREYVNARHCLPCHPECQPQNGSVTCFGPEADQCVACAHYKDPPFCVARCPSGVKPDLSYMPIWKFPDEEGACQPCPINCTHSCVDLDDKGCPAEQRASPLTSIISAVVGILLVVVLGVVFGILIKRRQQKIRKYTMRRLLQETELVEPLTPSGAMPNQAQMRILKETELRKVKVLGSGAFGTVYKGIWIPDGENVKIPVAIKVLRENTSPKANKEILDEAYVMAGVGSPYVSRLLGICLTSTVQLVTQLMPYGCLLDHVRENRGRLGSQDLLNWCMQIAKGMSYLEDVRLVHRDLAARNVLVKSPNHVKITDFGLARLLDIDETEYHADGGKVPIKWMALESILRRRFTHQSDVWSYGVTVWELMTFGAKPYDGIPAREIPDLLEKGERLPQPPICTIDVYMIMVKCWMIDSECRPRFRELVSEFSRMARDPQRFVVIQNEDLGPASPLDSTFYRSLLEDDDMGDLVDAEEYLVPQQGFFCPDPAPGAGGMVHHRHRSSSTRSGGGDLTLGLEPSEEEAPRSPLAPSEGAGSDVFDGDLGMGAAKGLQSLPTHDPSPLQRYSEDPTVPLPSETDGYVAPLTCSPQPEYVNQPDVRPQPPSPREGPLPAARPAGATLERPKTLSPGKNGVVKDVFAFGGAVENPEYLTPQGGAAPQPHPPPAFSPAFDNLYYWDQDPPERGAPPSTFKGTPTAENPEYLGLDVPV

Usually IC50 stands for the concentration needed to halve the response being measured. Regarding `O=C(CO)N1CCC[C@@H]1COc1cccc2ncnc(Nc3ccc4c(cnn4Cc4ccccn4)c3)c12` [Example 1, 2-Oxo-2-((2R)-2-{[(4-{[1-(pyridin-2-ylmethyl)-1H-indazol-5-yl]amino}quinazolin-5-yl)oxy]methyl}pyrrolidin-1-yl)ethanol], the IC50 in experiment [1] was determined as 0.006 µM; in experiment [2], 0.31 µM; in experiment [3], 0.38 µM.

With `O=C(CO)N1CCCC[C@@H]1COc1cccc2ncnc(Nc3ccc4c(cnn4Cc4ccccn4)c3)c12` [Example 4, 2-Oxo-2-((2R)-2-{[(4-{[1-(pyridin-2-ylmethyl)-1H-indazol-5-yl]amino}quinazolin-5-yl)oxy]methyl}piperidin-1-yl)ethanol], the IC50 came to 0.005 µM in experiment [1], 0.061 µM in experiment [2] and 0.044 µM in experiment [3].

The values above are taken from patent US20090137615A1, “INDAZOLYLAMINO QUINAZOLINE DERIVATIVES AS ANTITUMOUR AGENTS” (priority 2005, published 2009).
